PMC12040169 (PLOS Biology, 2025)

Assay: in vitro
Details: human, hela cells, % viability

| Structure (SMILES) | viability at 28.5 h, 10 µM [%] |
| --- | --- |
| Cc1cc(C)n2nc(CCCOC(=O)c3ccn(C(C)C)n3)nc2n1 [CBK305272] | 112 |
| CC(=O)NC(Cc1c[nH]c2ccccc12)C(=O)N(C)Cc1cnn(C)c1 (stereo not drawn) [CBK305274] | 84.3 |
| CCN(CCO)C(=O)NC1CCCc2c1cnn2Cc1ccccc1 (stereo not drawn) [CBK305277] | 91.5 |
| Cn1ncnc1CNc1ccc(S(=O)(=O)N2CCCCCC2)cc1 [CBK305278] | 90.1 |
| O=C(NCCc1ccccn1)N1CCCN(Cc2cccs2)CC1 [CBK305283] | 80.5 |
| Cc1nc(CC(=O)OC(C)C(=O)N2CCCc3ccccc32)cs1 (stereo not drawn) [CBK305285] | 91.6 |
| COCCn1cc(C(=O)N2CCCC2c2ccncc2)c2ccccc21 (stereo not drawn) [CBK305286] | 91.8 |
| COCCn1cc(C(=O)N2CCN3CCCCC3C2)c2ccccc21 (stereo not drawn) [CBK305287] | 107 |
| CCN(CC(C)C#N)C(=O)c1nnn(-c2ccc3ncccc3c2)c1C (stereo not drawn) [CBK305292] | 86.3 |
| CCCc1cc(C(=O)N2CCCN(Cc3cnn(CC)c3)CC2)[nH]n1 [CBK305293] | 92.3 |
| O=C(c1cccs1)N1CCCN(Cc2cn3ccccc3n2)CC1 [CBK305304] | 102 |
| CN(Cc1nnc(C2CC2)n1C)C1CCN(CCCc2cn[nH]c2)C1 (stereo not drawn) [CBK305305] | 85.2 |
| Cc1ccccc1Nc1nc(N)nc(CN(CCC#N)CC2CCC2)n1 [CBK305308] | 89.3 |
| CC(C)(C)OC(=O)N1CCCN(Cc2nc(-c3cccnc3)no2)CC1 [CBK305309] | 97.2 |
| CC(c1ccc(F)c(F)c1)N(C)C(=O)Cn1cnnc1[S+](C)[O-] (stereo not drawn) [CBK305311] | 105 |
| CC(C)NC(=O)Nc1ccc(C(=O)N(CCC#N)C(C)C2CC2)cc1 (stereo not drawn) [CBK305312] | 110 |
| Cc1cc(C)c(C(=O)N2CCN(CCNC(=O)C3CCCC3)CC2)[nH]1 [CBK305315] | 89.5 |
| CCn1ncc2c1CCCC2NC1CCCN(c2cnn(C)c2)C1=O (stereo not drawn) [CBK305316] | 88.7 |
| Cc1nc(C2CN(Cc3c(Cl)ccc4cccnc34)CCO2)no1 (stereo not drawn) [CBK305317] | 82 |
| CC(C(=O)NCCC1=CCCCC1)N1CCOC(Cn2cccn2)C1 (stereo not drawn) [CBK305319] | 101 |
| CCN(CC)CCN(C(=O)c1cnn(C)c1C)C1CCS(=O)(=O)C1 (stereo not drawn) [CBK305321] | 89.1 |
| CSC1CCC(N(C)C(=O)NCCc2cn3cccc(C)c3n2)C1 (stereo not drawn) [CBK305324] | 84.5 |
| CC(C)N(Cc1cnn(C)c1)C(=O)c1cc(C2CC2)nc2ccccc12 [CBK305325] | 103 |

| Structure (SMILES) | viability at 28.5 h, 10 µM [%] |
| --- | --- |
| CCc1nc(CN(C)C2CCN(CC(=O)NCc3ccco3)C2)no1 (stereo not drawn) [CBK305328] | 111 |
| CC(C)c1nc(CC(=O)N2CCOC(c3ccc(F)cc3)C2)cs1 (stereo not drawn) [CBK305334] | 93.9 |
| CN(C(=O)CN1CCOC(Cn2cccn2)C1)C1(C#N)CCCCC1 (stereo not drawn) [CBK305335] | 97.3 |
| CC(C(=O)NC1(C#N)CCCCC1)N1CCOC(Cn2cccn2)C1 (stereo not drawn) [CBK305337] | 88.9 |
| COCCn1nc(C(=O)N(C)Cc2nc3ccccc3s2)ccc1=O [CBK305338] | 91.8 |
| Cc1cc(C)n(CC(C)CNC(=O)Cc2csc(C(C)(C)C)n2)n1 (stereo not drawn) [CBK305340] | 96.1 |
| Cc1csc(N2CCN(C(=O)CCc3nc(C(C)C)no3)CC2)n1 [CBK305341] | 99.4 |
| Cc1cc(C)n(CC(C)NC(=O)N2CCC(Oc3cccnc3)C2)n1 (stereo not drawn) [CBK305342] | 92.1 |
| Cc1cc(C)n(CC2CN(CC(=O)NCc3ccccn3)CCO2)n1 (stereo not drawn) [CBK305344] | 107 |
| Cn1cc(CN2CCCN(C(=O)CCCc3ccccn3)CC2)cn1 [CBK305347] | 87.3 |
| Cc1nnnn1-c1cc(NC(=O)NCCCn2ccnc2)ccc1F [CBK305349] | 92.1 |
| CCN(CC)C(=O)c1cccc(NC(=O)Cc2cn3ccsc3n2)c1 [CBK305353] | 85.6 |
| CN(Cc1ccc(O)cc1)C(=O)NC1CCCc2c1cnn2CCO (stereo not drawn) [CBK305354] | 86.3 |
| Cc1ccc(OCc2nc(C)c(C(=O)N3CCCC(C)C3)s2)cc1 (stereo not drawn) [CBK305356] | 94.3 |
| CCc1cnc(CN(C)C2CCN(Cc3cccc(C(N)=O)c3)C2)o1 (stereo not drawn) [CBK305357] | 90.5 |
| CC(C(=O)NC1(C#N)CCCCC1)N1CCOC(Cn2cncn2)C1 (stereo not drawn) [CBK305359] | 101 |
| CC(C)c1cccc(-n2cc(O)c(C(=O)NCCCn3cccn3)n2)c1 [CBK305360] | 113 |
| NC(=O)c1cc(C2CCCN(CC(=O)NCc3cccs3)C2)n[nH]1 (stereo not drawn) [CBK305361] | 86.6 |
| Cc1nc(CN2CCCN(C(=O)c3cccc(C#N)c3)CC2)cs1 [CBK305363] | 83.6 |
| COc1ccc(CN2CCCN(C(=O)c3ccnc(Cl)c3)CC2)cc1 [CBK305364] | 85.4 |
| CN(Cc1ccncc1)C(=O)c1cccc(S(=O)(=O)NCC2CC2)c1 [CBK305365] | 95.6 |
| COCCN(Cc1cn2cccc(C(=O)OC)c2n1)Cc1ccco1 [CBK305366] | 97.8 |
| Cc1cc(N2CCN(C(=O)CCc3ccco3)CC2)nc(C(C)C)n1 [CBK305367] | 106 |

| Structure (SMILES) | viability at 28.5 h, 10 µM [%] |
| --- | --- |
| Cn1cc(CN2CCCN(C(=O)c3ccc4ccccc4n3)CC2)cn1 [CBK305369] | 102 |
| COc1ccc(CCNC(=O)CN2CCCC2c2cnn(C)c2)cc1 (stereo not drawn) [CBK305371] | 84.2 |
| CCn1cc(CN2CCCN(C(=O)c3cccn(C)c3=O)CC2)cn1 [CBK305375] | 106 |
| COc1cccc(C(=O)NCCC(=O)N2CCc3sccc3C2)c1 [CBK305376] | 108 |
| CC(=O)NC(CC(=O)N1CCc2sccc2C1C)c1ccc(C)cc1 (stereo not drawn) [CBK305378] | 89.2 |
| CCN(Cc1ccccn1)C(=O)NC(C)c1cccc(NC(C)=O)c1 (stereo not drawn) [CBK305380] | 92.9 |
| Cc1nc(C2CN(Cc3cc4ccccc4nc3Cl)CCO2)no1 (stereo not drawn) [CBK305381] | 96.5 |
| O=c1n(CCCNCc2ccc(Cl)cc2Cl)nc2n1CCCC2 [CBK305382] | 97.2 |
| Cc1nn(C)c(C)c1OCC(=O)Nc1cc(C(C)(C)C)sc1C#N [CBK305383] | 101 |
| Cc1nc(C2CN(Cc3ccc(Cl)c4cccnc34)CCO2)no1 (stereo not drawn) [CBK305384] | 102 |
| COc1ccc(OC)c(-n2nnnc2SCC2CCCN(C)C2)c1 (stereo not drawn) [CBK305386] | 84.2 |
| Cn1cc(-c2nc(C3CCCCCN3C(=O)c3cccnc3)no2)cn1 (stereo not drawn) [CBK305387] | 87.9 |
| Cc1cc(C)n(CC(C)CNC(=O)NCCN2CCCCCC2=O)n1 (stereo not drawn) [CBK305389] | 92 |
| Cc1nc2sccn2c1CN1CCCC(C(=O)N2CCOCC2)C1 (stereo not drawn) [CBK305390] | 97.6 |
| COCCNC(=O)c1cc(-c2ccccc2C)nc2c1cnn2C(C)C [CBK305392] | 111 |
| Cn1cc(CCNC(=O)N2CCCN(Cc3cccs3)CC2)cn1 [CBK305393] | 89.1 |
| COC(=O)c1ccc(N2CCN(Cc3ccc(CO)o3)C(C)C2)cc1 (stereo not drawn) [CBK305394] | 83.9 |
| COCC(=O)Nc1c[nH]nc1C1CCCN(c2cccc(F)c2C#N)C1 (stereo not drawn) [CBK305395] | 86 |
| CC1(c2ccco2)NC(=O)N(Cc2ncc(-c3cccs3)o2)C1=O (stereo not drawn) [CBK305398] | 98.8 |
| CCOC(=O)c1cnn(C2CCCN(Cc3cc(C#N)cs3)C2)c1 (stereo not drawn) [CBK305399] | 101 |
| CCNS(=O)(=O)C1CCN(c2cc(C#N)ccc2C(F)(F)F)C1 (stereo not drawn) [CBK305402] | 96.2 |
| Cc1c(C(C)NCC(O)c2ccncc2)cnn1-c1ccc(C#N)cc1 (stereo not drawn) [CBK305403] | 85 |
| CC(C(=O)Nc1cccc(F)c1)N1CCN(Cc2cccnc2)CC1 (stereo not drawn) [CBK305408] | 109 |

| Structure (SMILES) | viability at 28.5 h, 10 µM [%] |
| --- | --- |
| O=C(NCC1CCN(c2ccc(F)c(F)c2)C1)c1c[nH]nc1C1CC1 (stereo not drawn) [CBK305409] | 91 |
| Cc1cccc(CN2CCC(NC(=O)c3cccc4nn[nH]c34)CC2)c1 [CBK305411] | 92.1 |
| COc1ccc(C)cc1CN(C)C(=O)c1cccc(NC(=O)C2CC2)c1 [CBK305414] | 98.5 |
| Cc1c(CN(C)C(=O)c2cccc(NC(=O)C3CCCO3)c2)cnn1C (stereo not drawn) [CBK305416] | 103 |
| CCCCNc1cc(N2CCOC(Cn3cc(C)cn3)C2)nc(N)n1 (stereo not drawn) [CBK305417] | 53.3 |
| CCn1cc(C2CN(S(=O)(=O)c3ccc(F)c(C)c3)CCO2)cn1 (stereo not drawn) [CBK305419] | 91.3 |
| CCc1ccccc1S(=O)(=O)N1CCOC(c2cnn(CC)c2)C1 (stereo not drawn) [CBK305421] | 94.8 |
| Cc1ccc(C(F)(F)F)cc1NCc1csc(C2CCCO2)n1 (stereo not drawn) [CBK305424] | 92.8 |
| CN(Cc1ccsc1)C(=O)c1cccc(S(=O)(=O)NC(C)(C)C)c1 [CBK305425] | 81.2 |
| CCOC(=O)C(CNS(=O)(=O)c1ccc(F)cc1C)Cc1ccccc1 (stereo not drawn) [CBK305427] | 92.3 |
| CN(Cc1cccnc1)CC1CCCN(C(=O)Nc2ccc(Cl)cc2)C1 (stereo not drawn) [CBK305428] | 83.9 |
| CCCCc1noc(C(C)S(=O)(=O)Cc2csc(CCCC)n2)n1 (stereo not drawn) [CBK305431] | 110 |
| Cc1ccc(S(=O)(=O)NC(C)(C)C)cc1C(=O)N(C)Cc1cnn(C)c1 [CBK305433] | 86.9 |
| CC(C)Oc1ccccc1CN(C)C(C)c1ccc(S(N)(=O)=O)cc1 (stereo not drawn) [CBK305436] | 94.4 |
| CSCc1nc2ccccc2n1CC(=O)N(CCC#N)Cc1ccco1 [CBK305440] | 97.7 |
| CC(C)(O)c1cn(C2CN(C(=O)c3sccc3-c3ccccc3)C2)nn1 [CBK305442] | 87.6 |
| CCOC(=O)C(NCc1nc(-c2cccc(C(F)(F)F)c2)no1)C(C)C (stereo not drawn) [CBK305445] | 93 |
| Cc1c(C(=O)N2CC(n3cc(C(C)O)nn3)C2)sc2ccc(F)cc12 (stereo not drawn) [CBK305446] | 94.5 |
| Cc1ccc(Cc2cnc(NC(=O)NCCN3CCOCC3)s2)cc1F [CBK305449] | 93.6 |
| O=C(NCc1ccsc1)N1CCCN(Cc2ccc(Cl)cc2)CC1 [CBK305450] | 86.4 |
| COc1ccc(C)cc1C1(CNC(=O)N2CCC(C)(O)C2)CCOCC1 (stereo not drawn) [CBK305452] | 102 |
